{"source": "patent US6458760B1", "about": "“Method for treating tissue damaged from ischemia” (Henry Ford Health System, priority 1998, dated 2002)", "key": {"cathepsin B": {"biological_target": "T1, cathepsin B (Rattus norvegicus, UniProt P00787)", "T1 construct": "the brains were extracted and separated with right and left, cortical and subcortical regions and immediately frozen in liquid nitrogen; from tissue; host or cells: rat brain (cortical and subcortical regions), homogenate", "T1 sequence (P00787 80-333)": "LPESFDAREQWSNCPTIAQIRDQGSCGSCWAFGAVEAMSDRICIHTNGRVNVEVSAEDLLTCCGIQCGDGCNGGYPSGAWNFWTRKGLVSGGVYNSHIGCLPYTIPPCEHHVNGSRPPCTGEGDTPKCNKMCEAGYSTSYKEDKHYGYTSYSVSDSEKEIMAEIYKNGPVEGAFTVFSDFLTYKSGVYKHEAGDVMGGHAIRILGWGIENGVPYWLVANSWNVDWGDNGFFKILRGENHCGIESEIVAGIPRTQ", "experiment": "Cathepsin B activity in brain homogenates after 2 h MCA occlusion and infusion", "type": "in vivo", "experimental": "The protocol of Example 6 was followed except as follows: the rats under went two hours of MCA occlusion, they were administered either CP-1 (50 μM) or 1% DMSO/saline for four hours after reperfusion and the rats were sacrificed after 48 hours of survival.\nAt that time, the brains were extracted and separated with right and left, cortical and subcortical regions and immediately frozen in liquid nitrogen. The samples were homogenized with buffer, titrated, and then reacted with the substrate CBZ-Arg-Arg-AMC with the resultant fluorescence measured with a fluorophotometer. Activity is expressed in units of enzyme activity per mg of soluble brain protein (mean +SEM)."}, "[1]": {"tested_on": "Wistar rats with MCA occlusion", "experiment": "Stroke model, 2 h MCA occlusion, i.v. infusion after reperfusion, infarct volume at 7 days", "type": "in vivo, rat", "settings": "for % Hemisphere Infarct Volume (% ± SEM): 2 h MCA occlusion, day 7, control 37 ± 2.6", "experimental": "Male Wistar rat weighing between 270-290 gm are fasted the night prior to surgery. Each rat was then anesthetized with 3.5% halothane, and spontaneously respired with 0.5% halothane in a 2:1 N2O:O2 mixture using a face mask. A normal range of blood gases and pH is maintained during ischemia and reperfusion with the face mask inhalation, as verified by samples taken from a femoral artery PE-50 catheter. Body temperature is maintained constant at 37° C. with a recirculating heating pad and K module with an intrarectal type T thermocouple. The PE-50 catheters are inserted into the femoral artery and vein following induction of anesthesia to obtain the blood gas, glucose and hemoglobin concentrations and to monitor blood pressure.\nThe right common carotid artery, external carotid artery and internal carotid artery are isolated using microsurgical techniques. A clamp is applied to the common carotid artery and a 4-0 nylon suture with a rounded tip is inserted into the external carotid artery through a small puncture. The clamp on the common carotid artery is removed. The suture is passed distally into the internal carotid artery until it blocks the middle cerebral artery. Two hours after the MCA occlusion, the animal is again anesthetized, and the nylon suture is removed from the internal carotid artery.\nInfusion of the inhibitor or vehicle is done by intravenous infusion via the femoral vein.\nSyringe pumps were filled under sterile conditions with either isotonic saline/1% DMSO solution as the control or with the concentration of CP-1 or CP-2 indicated in the examples, hereinbelow. The pumps delivered the solution at a rate of 15 μl/min for up to 4 hours.\nAfter anesthesia had been induced in the rat, a catheter was inserted into the femoral vein and tunneled subcutaneously in the posterior neck region. Body temperature was maintained at a constant temperature of 37° C. during surgical procedures. The animals underwent 2 hours of MCA occlusion, and then reperfusion when the suture was withdrawn, and immediately thereafter, the drug was infused for four hours. The animals were killed after a 7-day reperfusion, and the brains were formalin fixed and sliced 6-μm thick into seven coronal sections A-G, and mounted on coated slides. After staining with hematoxylin and eosin, the stroke volume was measured using an image analysis program. The stroke area and the contralateral hemispheric area were calculated by tracing the areas on the computer screen, and the volumes were determined by multiplying the appropriate area by the section interval thickness. The stroke volume is expressed as the percentage of lesion size to the volume of contralateral hemisphere. Statistical analysis was performed using the independent t-test.\nCP-1 dissolved in 1% DMSO and isotonic saline was given intravenously to Wistar rats (15 μl/min) at concentrations of 2 μM, 10μM, 50μM and 25μM for 4 hours immediately after reperfusion following two hours of MCA occlusion, in accordance with the procedure described hereinabove. Control animals underwent a similar protocol but they had injected therein 1% DMSO/Saline as the vehicle within four hours. All animals which survived 7 days were sacrificed and the stroke volume calculated. The results are tabulated hereinbelow:\nThe protocol described hereinabove was repeated with CP-2 used in lieu of CP-1, at doses of 10, 50, 250 and 500 μM."}, "[2]": {"tested_on": "Wistar rats with MCA occlusion", "experiment": "Neurological function on four point scale (Bederson) after 3 h MCA occlusion", "type": "in vivo, rat", "experimental": "CP-1 dissolved in 1% DMSO and isotonic saline was given intravenously to Wistar rats (15 μl/min) at a concentration of 50 μM for four hours beginning at the end of three hours of MCA occlusion, in accordance with the protocol described hereinabove. Control animals underwent a similar protocol, but they had injected therein a 1% DMSO/Saline as the vehicle for four hours beginning at the end of a three hour MCA occlusion. All animals which survived 7 days were sacrificed and the infarct volume was measured 7 days after the MCA occlusion.\nOn the first day and on the seventh day after occlusion, the neurological function was determined on a four point scale (0, 1, 2, 3,) as described in an article by Bederson, et al. in Stroke, 1986, 17:472-476, the contents of which are incorporated by reference.\nThe rats were placed on large sheet of soft, plastic coated paper (such as counter protection paper) which they could potentially firmly grip with their claws. The tail of the rats were held by hand, and gentle lateral pressure was applied behind the rat's shoulder until it was noticed that the forelimbs slid several inches. This maneuver was repeated several times in each direction. […] (These rats were severely dysfunctional).\nThese values are the mean score ±SEM of the results from treatment on control animals. P≦0.05 according to the Mann Whitney Rank Sum test."}}, "note": "Residues, ends and D or L forms follow the SMILES beside them. *: point of attachment. Cbz = O=C(OCc1ccccc1)*; CHN2 = [N-]=[N+]=C*; Bn = c1ccc(C*)cc1"}
{"smiles": "[N-]=[N+]=CC(=O)C(COCc1ccccc1)NC(=O)C(Cc1ccccc1)NC(=O)OCc1ccccc1", "note": "(stereo not drawn) [CP-1, benzyloxycarbonyl-Phe-Ser(OBz)-CHN2] (Cbz-Phe-Ser(Bn)-CHN2; configuration not given here)", "values": [{"measurement": "Cathepsin B activity, Left Cortex", "setting": "cathepsin B; 50 μM i.v. 4 h after 2 h MCA occlusion, 48 h survival, mean ± SEM, control 0.142 ± 0.02", "result": "0.106 ± .01 units of enzyme activity per mg of soluble brain protein"}, {"measurement": "Cathepsin B activity, Left Subcortex", "setting": "cathepsin B; 50 μM i.v. 4 h after 2 h MCA occlusion, 48 h survival, mean ± SEM, control 0.147 ± 0.02, p < 0.05", "result": "0.084 ± .01 units of enzyme activity per mg of soluble brain protein"}, {"measurement": "Cathepsin B activity, Right Cortex", "setting": "cathepsin B; 50 μM i.v. 4 h after 2 h MCA occlusion, 48 h survival, mean ± SEM, control 0.181 ± 0.04", "result": "0.113 ± 0.01 units of enzyme activity per mg of soluble brain protein"}, {"measurement": "Cathepsin B activity, Right Subcortex", "setting": "cathepsin B; 50 μM i.v. 4 h after 2 h MCA occlusion, 48 h survival, mean ± SEM, control 0.198 ± 0.03, p < 0.05", "result": "0.113 ± 0.02 units of enzyme activity per mg of soluble brain protein"}, {"measurement": "cathepsin B activity in the subcortical regions versus vehicle", "setting": "cathepsin B; 50 μM infusion after 2 h MCA occlusion", "result": "significantly lower"}, {"measurement": "% Hemisphere Infarct Volume (% ± SEM)", "setting": "[1]; 2 μM i.v. 15 μl/min for 4 h after reperfusion", "result": "39 ± 2.1, p > 0.1%"}, {"measurement": "% Hemisphere Infarct Volume (% ± SEM)", "setting": "[1]; 10 μM i.v. 15 μl/min for 4 h after reperfusion", "result": "22 ± 4.7, p = 0.01%"}, {"measurement": "% Hemisphere Infarct Volume (% ± SEM)", "setting": "[1]; 50 μM i.v. 15 μl/min for 4 h after reperfusion", "result": "20 ± 4.1, p = 0.003%"}, {"measurement": "% Hemisphere Infarct Volume (% ± SEM)", "setting": "[1]; 250 μM i.v. 15 μl/min for 4 h after reperfusion", "result": "23 ± 5.2, p = 0.02%"}, {"measurement": "area of damage of the cerebral hemisphere", "setting": "[1]; all doses except 2 μM, reduced from 37% in control", "result": "about 20%"}, {"measurement": "Functional Score Day 7", "setting": "[2]; 50 μM i.v. 4 h after 3 h MCA occlusion, scale 0-3, mean ± SEM, control 1.9 ± 0.3", "result": "0.9 ± 0.2"}, {"measurement": "Functional Score Day 1", "setting": "[2]; 50 μM i.v. 4 h after 3 h MCA occlusion, scale 0-3, mean ± SEM, control 3 ± 0", "result": "2.1 ± 0.6"}, {"measurement": "reducing the neurological deficits due to the occlusion", "setting": "[2]; 50 μM, 3 hour MCA occlusion", "result": "effective in reducing the neurological deficits"}]}
